This passage reports IC50 results from patent US9580416B2, “Inhibitors of Bruton's tyrosine kinase” (PHARMACYCLICS LLC, priority 2014, dated 2017).

Holding throughout (format): biochemical
One experiment has as its target Btk (Homo sapiens, UniProt Q06187). The experiment can be described thus: Btk kinase activity, TR-FRET assay. Conditions: read-out: Btk (IC50). The procedure, abridged: (§1)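 Enzyme (Btk 0.5 nM; Lck 6 nM) reacted 1 h with inhibitor, ATP at Km and biotin-peptide substrate in pH 7.4 buffer, 10% DMSO. Phosphopeptide detected by Eu-p-Tyr100 antibody plus streptavidin-APC (665/615 nm). IC50 calculated from fitted Ki(app) via ATP/Km correction plus half total enzyme.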

A further experiment addresses Lck (Homo sapiens, UniProt P06239). The experiment can be described thus: Lck kinase activity, TR-FRET assay. Conditions: read-out: LCK (IC50). In a few lines:
as §1

The target of a further experiment is EGFR (Homo sapiens, UniProt P00533). Description: Inhibition of a panel of kinases, in vitro HotSpot kinase assay: EGFR. The method, then: (§2) The degree of inhibition of a panel of kinases is determined using the in vitro HotSpot kinase assay (purified enzymes, ^33P-ATP, an appropriate substrate and 1 uM ATP).
Another experiment deals with T1, JAK3 (Homo sapiens, UniProt P52333).
T1 sequence (P52333 1-1124): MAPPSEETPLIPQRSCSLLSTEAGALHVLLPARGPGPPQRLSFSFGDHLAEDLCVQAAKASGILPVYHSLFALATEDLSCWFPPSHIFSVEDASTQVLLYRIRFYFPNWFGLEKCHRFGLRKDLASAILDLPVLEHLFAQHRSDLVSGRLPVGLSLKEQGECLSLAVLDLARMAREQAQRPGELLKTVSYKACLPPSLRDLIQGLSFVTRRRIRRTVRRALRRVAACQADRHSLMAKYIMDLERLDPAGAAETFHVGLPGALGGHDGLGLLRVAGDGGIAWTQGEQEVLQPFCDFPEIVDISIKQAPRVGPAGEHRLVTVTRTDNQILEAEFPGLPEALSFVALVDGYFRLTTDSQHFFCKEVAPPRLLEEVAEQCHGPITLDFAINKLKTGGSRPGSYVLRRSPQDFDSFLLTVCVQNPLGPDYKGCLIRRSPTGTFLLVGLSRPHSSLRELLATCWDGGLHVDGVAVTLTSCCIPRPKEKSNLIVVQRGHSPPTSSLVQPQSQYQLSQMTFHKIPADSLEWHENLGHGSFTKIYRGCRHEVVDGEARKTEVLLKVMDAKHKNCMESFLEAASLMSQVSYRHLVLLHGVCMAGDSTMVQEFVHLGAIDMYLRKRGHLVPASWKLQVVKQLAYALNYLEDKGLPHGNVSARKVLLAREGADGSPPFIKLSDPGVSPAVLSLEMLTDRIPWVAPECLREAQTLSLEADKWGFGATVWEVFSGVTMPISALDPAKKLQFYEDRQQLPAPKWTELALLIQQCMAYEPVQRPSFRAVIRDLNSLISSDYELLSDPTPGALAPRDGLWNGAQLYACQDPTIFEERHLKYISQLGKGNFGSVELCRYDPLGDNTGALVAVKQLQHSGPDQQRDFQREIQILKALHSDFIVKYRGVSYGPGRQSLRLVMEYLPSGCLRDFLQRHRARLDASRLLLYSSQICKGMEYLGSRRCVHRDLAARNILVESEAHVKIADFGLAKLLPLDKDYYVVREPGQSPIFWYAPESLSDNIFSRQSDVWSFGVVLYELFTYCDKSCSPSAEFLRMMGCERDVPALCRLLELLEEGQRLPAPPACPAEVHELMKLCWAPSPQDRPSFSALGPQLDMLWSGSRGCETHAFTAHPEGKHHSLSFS
The experiment can be described thus: Inhibition of a panel of kinases, in vitro HotSpot kinase assay: JAK3. The method, then:
as §2

EGFR, sequence (P00533 25-1210): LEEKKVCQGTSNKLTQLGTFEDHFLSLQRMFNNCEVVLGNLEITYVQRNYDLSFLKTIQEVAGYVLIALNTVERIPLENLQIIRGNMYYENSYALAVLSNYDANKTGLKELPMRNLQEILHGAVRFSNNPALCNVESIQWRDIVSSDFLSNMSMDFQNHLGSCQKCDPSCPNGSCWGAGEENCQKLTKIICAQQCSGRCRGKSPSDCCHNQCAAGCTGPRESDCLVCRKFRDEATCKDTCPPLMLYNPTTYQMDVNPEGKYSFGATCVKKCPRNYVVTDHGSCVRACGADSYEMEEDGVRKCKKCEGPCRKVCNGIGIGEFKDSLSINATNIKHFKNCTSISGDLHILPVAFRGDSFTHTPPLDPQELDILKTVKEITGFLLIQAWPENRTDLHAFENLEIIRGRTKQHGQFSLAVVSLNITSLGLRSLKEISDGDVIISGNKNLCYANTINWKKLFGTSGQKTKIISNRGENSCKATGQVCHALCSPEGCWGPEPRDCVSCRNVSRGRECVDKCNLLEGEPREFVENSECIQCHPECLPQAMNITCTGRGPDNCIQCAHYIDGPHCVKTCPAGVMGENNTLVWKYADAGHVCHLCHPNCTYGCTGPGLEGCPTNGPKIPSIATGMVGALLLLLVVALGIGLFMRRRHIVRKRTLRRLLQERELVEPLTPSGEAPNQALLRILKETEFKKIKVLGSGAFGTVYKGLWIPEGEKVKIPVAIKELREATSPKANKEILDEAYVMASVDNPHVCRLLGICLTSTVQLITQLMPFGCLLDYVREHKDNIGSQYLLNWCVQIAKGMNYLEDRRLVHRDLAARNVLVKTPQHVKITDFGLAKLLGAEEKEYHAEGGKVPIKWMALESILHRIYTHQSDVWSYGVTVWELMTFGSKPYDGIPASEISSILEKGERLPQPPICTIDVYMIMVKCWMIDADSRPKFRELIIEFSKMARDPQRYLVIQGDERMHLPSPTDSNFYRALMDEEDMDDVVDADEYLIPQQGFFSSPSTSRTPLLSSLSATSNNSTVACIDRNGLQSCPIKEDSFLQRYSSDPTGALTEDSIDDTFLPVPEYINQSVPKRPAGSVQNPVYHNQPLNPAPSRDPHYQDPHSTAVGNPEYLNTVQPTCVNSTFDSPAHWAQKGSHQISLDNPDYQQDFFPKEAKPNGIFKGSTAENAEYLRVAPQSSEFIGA
Btk, sequence (Q06187 whole entry): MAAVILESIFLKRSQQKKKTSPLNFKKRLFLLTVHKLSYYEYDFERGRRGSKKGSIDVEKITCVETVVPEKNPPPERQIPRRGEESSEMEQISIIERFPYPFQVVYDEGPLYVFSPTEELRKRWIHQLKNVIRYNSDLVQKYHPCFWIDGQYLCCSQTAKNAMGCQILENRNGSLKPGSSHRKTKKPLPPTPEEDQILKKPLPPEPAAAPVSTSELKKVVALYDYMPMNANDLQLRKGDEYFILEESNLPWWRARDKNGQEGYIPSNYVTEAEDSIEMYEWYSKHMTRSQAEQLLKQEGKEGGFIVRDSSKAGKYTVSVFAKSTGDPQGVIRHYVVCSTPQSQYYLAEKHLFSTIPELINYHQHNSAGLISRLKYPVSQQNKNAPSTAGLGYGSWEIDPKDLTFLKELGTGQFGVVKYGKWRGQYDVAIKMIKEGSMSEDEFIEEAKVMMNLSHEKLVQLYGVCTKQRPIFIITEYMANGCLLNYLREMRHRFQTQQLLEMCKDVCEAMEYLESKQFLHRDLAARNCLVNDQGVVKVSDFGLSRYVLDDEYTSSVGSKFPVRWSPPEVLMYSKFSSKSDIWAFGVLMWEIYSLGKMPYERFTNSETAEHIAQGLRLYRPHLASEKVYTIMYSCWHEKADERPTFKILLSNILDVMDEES
Lck, sequence (P06239 whole entry, species assumed): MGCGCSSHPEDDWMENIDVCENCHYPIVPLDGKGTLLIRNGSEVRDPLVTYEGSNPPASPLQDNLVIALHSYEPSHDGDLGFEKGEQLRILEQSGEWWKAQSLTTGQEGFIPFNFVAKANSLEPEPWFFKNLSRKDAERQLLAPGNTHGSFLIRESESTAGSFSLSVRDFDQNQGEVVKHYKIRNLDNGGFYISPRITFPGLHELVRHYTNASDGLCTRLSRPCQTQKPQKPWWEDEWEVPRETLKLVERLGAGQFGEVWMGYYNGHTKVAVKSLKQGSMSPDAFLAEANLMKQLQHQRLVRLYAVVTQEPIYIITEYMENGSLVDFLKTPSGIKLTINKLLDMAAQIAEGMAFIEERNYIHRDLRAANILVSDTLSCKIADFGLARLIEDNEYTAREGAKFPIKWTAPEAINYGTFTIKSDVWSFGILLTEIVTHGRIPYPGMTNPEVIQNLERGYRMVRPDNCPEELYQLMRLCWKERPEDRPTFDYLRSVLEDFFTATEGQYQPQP

For `CCC(=O)N1CCC[C@@H](Nc2n[nH]c3nccc(Oc4ccc(-c5nc6ccccc6s5)cc4)c23)C1` [compound 222, 1-[(3R)-3-({4-[4-(1,3-benzothiazol-2-yl)phenoxy]-1H-pyrazolo[3,4-b]pyridin-3-yl}amino)piperidin-1-yl]propan-1-one], the IC50 on Btk is 100 to 1000 nM; at Lck, 100 to 1000 nM; against EGFR, more than 10000 nM; against JAK3 it was more than 10000 nM.

On to `Cc1cccc(NC(=O)c2ccc(Oc3ccnc4[nH]nc(N[C@@H]5CCCN(C(=O)C6(C)CCOCC6)C5)c34)cc2)n1` [compound 114, 4-[(3-{[(3R)-1-(4-methyloxane-4-carbonyl)piperidin-3-yl]amino}-1H-pyrazolo[3,4-b]pyridin-4-yl)oxy]-N-(6-methylpyridin-2-yl)benzamide], for which the IC50 is 100 to 1000 nM on Btk, 1000 to 10000 nM at Lck, more than 10000 nM against EGFR and more than 10000 nM against JAK3.

In the case of `CN(C/C=C/C(=O)N1CCC[C@@H](Nc2n[nH]c3nccc(Oc4ccc(C(=O)Nc5nc6ccccc6s5)cc4)c23)C1)C1CC1` [compound 167], the IC50 at Btk was less than 100 nM; at Lck, 100 to 1000 nM; at EGFR, 1000 to 10000 nM; against JAK3, 1000 to 10000 nM.

With `Cc1cnc(NC(=O)c2ccc(Oc3ccnc4[nH]nc(N[C@@H]5CCN(C(=O)C6CCN(C)CC6)C5)c34)cc2)s1` [compound 221, N-(5-methyl-1,3-thiazol-2-yl)-4-[(3-{[(3R)-1-(1-methylpiperidine-4-carbonyl)pyrrolidin-3-yl]amino}-1H-pyrazolo[3,4-b]pyridin-4-yl)oxy]benzamide], the IC50 on Btk was less than 100 nM; on Lck, 100 to 1000 nM; against EGFR it was 1000 to 10000 nM; against JAK3, more than 10000 nM.

As for `Cc1ccnc(NC(=O)c2ccc(Oc3ccnc4[nH]nc(N[C@@H]5CCCN(C#N)C5)c34)cc2)c1` [compound 276, (R)-4-(3-(1-cyanopiperidin-3-ylamino)-1H-pyrazolo[3,4-b]pyridin-4-yloxy)-N-(4-methylpyridin-2-yl)benzamide], the IC50 was less than 100 nM on Btk, 100 to 1000 nM at Lck, 1000 to 10000 nM against EGFR and more than 10000 nM at JAK3.

For `C=CC(=O)N1CCC[C@@H](Nc2n[nH]c3nccc(Oc4ccc(C(=O)Nc5ncc(CC)s5)cc4)c23)C1` [compound 179], the half-inhibitory concentration (IC50) was less than 100 nM on Btk, 100 to 1000 nM on Lck, less than 100 nM at EGFR and less than 100 nM against JAK3.

With `Cc1ccnc(NC(=O)c2ccc(Oc3ccnc4[nH]nc(N[C@@H]5CCCN(C(=O)[C@H]6CCOC6)C5)c34)cc2)c1` [compound 116, N-(4-methylpyridin-2-yl)-4-[(3-{[(3R)-1-[(3S)-oxolane-3-carbonyl]piperidin-3-yl]amino}-1H-pyrazolo[3,4-b]pyridin-4-yl)oxy]benzamide], the IC50 at Btk is less than 100 nM; at Lck it was 100 to 1000 nM; at EGFR, 1000 to 10000 nM; on JAK3, more than 10000 nM.

In the case of `Cc1cc(Oc2ccccc2)ccc1Oc1ccnc2[nH]nc(N[C@@H]3CCCN(C(=O)/C=C/CN(C)C4CC4)C3)c12` [compound 169], the IC50 was less than 100 nM on Btk, less than 100 nM at Lck, 100 to 1000 nM on EGFR and 1000 to 10000 nM against JAK3.

Turning to `CC(=O)N1CCC[C@@H](Oc2n[nH]c3nccc(Nc4cccc(C(=O)Nc5ccc(C(C)C)c(C)c5)c4)c23)C1` [compound 135, 3-[(3-{[(3R)-1-acetylpiperidin-3-yl]oxy}-1H-pyrazolo[3,4-b]pyridin-4-yl)amino]-N-[3-methyl-4-(propan-2-yl)phenyl]benzamide], the IC50 on Btk is 100 to 1000 nM; at Lck, 1000 to 10000 nM; against EGFR, 1000 to 10000 nM; on JAK3, more than 10000 nM.

Take `C=CC(=O)N1CCC[C@@H](Nc2n[nH]c3nccc(Oc4cccc(C(=O)Nc5ccc(C(C)C)c(C)c5)c4)c23)C1` [compound 250, (R)-3-(3-(1-acryloylpiperidin-3-ylamino)-1H-pyrazolo[3,4-b]pyridin-4-yloxy)-N-(4-isopropyl-3-methylphenyl)benzamide]: the IC50 at Btk, on Lck, against EGFR and at JAK3 was less than 100 nM throughout.

Regarding `Cc1nc(NC(=O)c2ccc(Oc3ccnc4[nH]nc(N[C@@H]5CCCN(C(=O)/C=C/CN(C)C6CC6)C5)c34)cc2)sc1C` [compound 164], the IC50 at Btk was less than 100 nM; on Lck, 1000 to 10000 nM; at EGFR, 1000 to 10000 nM; on JAK3, 1000 to 10000 nM.

As to `C=CC(=O)N1CCC[C@@H](Nc2n[nH]c3nccc(Oc4ccc(C(=O)Nc5ncc(C)s5)cc4)c23)C1` [compound 140], the IC50 at Btk was less than 100 nM; at Lck, 100 to 1000 nM; against EGFR, 100 to 1000 nM; on JAK3 it was less than 100 nM.

Regarding `CCNC(=O)N1CCC[C@@H](Nc2n[nH]c3nccc(Oc4ccc(-c5nc6ccccc6s5)cc4)c23)C1` [compound 216, (3R)-3-({4-[4-(1,3-benzothiazol-2-yl)phenoxy]-1H-pyrazolo[3,4-b]pyridin-3-yl}amino)-N-ethylpiperidine-1-carboxamide], the IC50 is 100 to 1000 nM at Btk, 1000 to 10000 nM at Lck, more than 10000 nM against EGFR and more than 10000 nM at JAK3.

For the compound `C=CC(=O)N1CC[C@H](Nc2n[nH]c3nccc(Oc4cccc(C(=O)Nc5ccc(C(C)C)c(C)c5)c4)c23)C1` [compound 126, N-[3-methyl-4-(propan-2-yl)phenyl]-3-[(3-{[(3S)-1-(prop-2-enoyl)pyrrolidin-3-yl]amino}-1H-pyrazolo[3,4-b]pyridin-4-yl)oxy]benzamide], the 50% inhibitory concentration (IC50) on Btk was 100 to 1000 nM; on Lck it was less than 100 nM; against EGFR, 1000 to 10000 nM; against JAK3, 100 to 1000 nM.

In the case of `Cc1cnc(NC(=O)c2ccc(Oc3ccnc4[nH]nc(N[C@@H]5CCN(C(=O)CCCN(C)C)C5)c34)cc2)s1` [compound 202, 4-[(3-{[(3R)-1-[4-(dimethylamino)butanoyl]pyrrolidin-3-yl]amino}-1H-pyrazolo[3,4-b]pyridin-4-yl)oxy]-N-(5-methyl-1,3-thiazol-2-yl)benzamide], the half-inhibitory concentration (IC50) is less than 100 nM at Btk, 1000 to 10000 nM on Lck, more than 10000 nM on EGFR and more than 10000 nM against JAK3.

As to `CCC(=O)N1CCC[C@@H](Nc2n[nH]c3nccc(Oc4ccc(C(=O)Nc5cc(C(F)(F)F)ccn5)cc4)c23)C1` [compound 225, 4-[(3-{[(3R)-1-propanoylpiperidin-3-yl]amino}-1H-pyrazolo[3,4-b]pyridin-4-yl)oxy]-N-[4-(trifluoromethyl)pyridin-2-yl]benzamide], the IC50 was less than 100 nM on Btk, 100 to 1000 nM at Lck, 100 to 1000 nM on EGFR and more than 10000 nM on JAK3.

`CC#CC(=O)N1CCC[C@@H](Nc2n[nH]c3nccc(Oc4ccc(C(=O)Nc5nc(C)c(C)s5)cc4)c23)C1` [compound 175]: the concentration for half-maximal inhibition (IC50) on Btk is less than 100 nM; on Lck, 100 to 1000 nM; against EGFR, more than 10000 nM; against JAK3, more than 10000 nM.

For `Cc1ccnc(NC(=O)c2ccc(Oc3ccnc4[nH]nc(N[C@@H]5CCCN(C(=O)C6(C)CCN(C(=O)OC(C)(C)C)CC6)C5)c34)cc2)c1` [compound 103, tert-butyl 4-methyl-4-[(3R)-3-[(4-{4-[(4-methylpyridin-2-yl)carbamoyl]phenoxy}-1H-pyrazolo[3,4-b]pyridin-3-yl)amino]piperidine-1-carbonyl]piperidine-1-carboxylate], the IC50 on Btk was less than 100 nM; at Lck, 1000 to 10000 nM; against EGFR, more than 10000 nM; on JAK3 it was more than 10000 nM.

For `Cc1ccnc(NC(=O)c2ccc(Oc3ccnc4[nH]nc(N[C@@H]5CCCN(C(=O)[C@@H]6CCCO6)C5)c34)cc2)c1` (single isomer, unassigned) [compound 94], the 50% inhibitory concentration (IC50) at Btk is less than 100 nM; at Lck it was 100 to 1000 nM; at EGFR it was 1000 to 10000 nM; against JAK3 it was more than 10000 nM.
